Test [1] deals with full-length MALT1 protein (Strep-MALT1(1-824)-His) (Homo sapiens (Human), UniProt Q9UDY8). Briefly: MALT1 Biochemical Protease Assay (Ac-LRSR-AMC substrate). To be noted: 10 nM FL MALT1, 200 μM Ac-LRSR-AMC, 4 h at RT; read-out: MALT1_Biochemical activity (Ac-LRSR-amc) IC50. In outline:
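Full-length MALT1 pre-incubated with compounds (30 μM to 0.5 nM, 11 threefold steps) for 50 min at RT. After Ac-LRSR-AMC was added, the reaction ran 4 h at RT and AMC fluorescence was read. IC50 and Hill slope from curve fitting against no-enzyme and no-compound controls.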

Test [2] concerns IL6 secretion by OCI-LY3 ABC-DLBCL cells. Briefly: Human IL6 Mesoscale assay (OCI-LY3). In kind it is cell-based. To be noted: Homo sapiens, 24 h. An outline of the steps: (§1)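 Read-out: MSD electrochemiluminescence of IL6/IL10 in supernatants. Cells (100,000/well, no beta-mercaptoethanol) were exposed to compounds at 15 μM down to 58.6 nM, 1:2 dilutions, for 24 h at 37° C, 5% CO2. Normalised between DMSO (high) and RN486 (low) controls.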

For test [3], the system named is IL10 secretion by OCI-LY3 ABC-DLBCL cells. Briefly: Human IL10 Mesoscale assay (OCI-LY3). The test is classed as cell-based. As to conditions: Homo sapiens, 24 h. In outline: as §1

This is an account of results in patent US10954214B2 (Janssen Pharmaceutica NV, priority 2016, dated 2021).

full-length MALT1 protein (Strep-MALT1(1-824)-His), sequence (Q9UDY8 whole entry): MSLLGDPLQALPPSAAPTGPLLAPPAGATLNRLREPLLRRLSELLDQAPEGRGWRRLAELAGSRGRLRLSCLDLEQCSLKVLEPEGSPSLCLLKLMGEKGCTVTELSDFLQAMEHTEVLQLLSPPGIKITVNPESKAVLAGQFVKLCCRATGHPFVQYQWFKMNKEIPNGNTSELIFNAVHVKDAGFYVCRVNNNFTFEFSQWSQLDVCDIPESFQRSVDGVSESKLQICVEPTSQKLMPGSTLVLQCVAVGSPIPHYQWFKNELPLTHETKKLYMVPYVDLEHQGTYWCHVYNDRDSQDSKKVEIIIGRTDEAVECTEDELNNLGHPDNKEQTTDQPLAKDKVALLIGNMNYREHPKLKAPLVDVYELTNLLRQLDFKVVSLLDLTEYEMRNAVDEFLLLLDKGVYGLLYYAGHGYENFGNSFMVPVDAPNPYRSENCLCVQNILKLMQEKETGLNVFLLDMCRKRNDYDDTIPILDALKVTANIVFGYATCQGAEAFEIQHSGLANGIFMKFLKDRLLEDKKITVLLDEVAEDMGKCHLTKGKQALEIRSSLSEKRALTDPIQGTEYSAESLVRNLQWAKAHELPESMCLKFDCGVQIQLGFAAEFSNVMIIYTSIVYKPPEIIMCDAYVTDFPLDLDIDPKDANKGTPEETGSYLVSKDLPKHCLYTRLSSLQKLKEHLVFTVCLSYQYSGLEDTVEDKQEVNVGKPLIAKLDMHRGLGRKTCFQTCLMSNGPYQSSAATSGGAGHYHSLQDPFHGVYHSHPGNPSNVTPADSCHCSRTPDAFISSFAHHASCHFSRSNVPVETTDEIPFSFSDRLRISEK

Consider `Cc1nc(-n2cccn2)c(Cl)cc1NC(=O)c1cnn(-c2cnc(N)c3ccccc23)c1C(F)(F)F` [Cpd 336, 1-(1-aminoisoquinolin-4-yl)-N-(5-chloro-2-methyl-6-(1H-pyrazol-1-yl)pyridin-3-yl)-5-(trifluoromethyl)-1H-pyrazole-4-carboxamide], for which the values for the 50% inhibitory concentration (IC50) in test [1], in test [2] and in test [3] were 214 nM, 209 nM and 117 nM, respectively.
In the case of `Cc1cc(-n2nccn2)c(C#N)cc1NC(=O)c1cnn(-c2cnc(N)c3ccccc23)c1C(F)(F)F` [Cpd 337, 1-(1-aminoisoquinolin-4-yl)-N-(5-cyano-2-methyl-4-(2H-1,2,3-triazol-2-yl)phenyl)-5-(trifluoromethyl)-1H-pyrazole-4-carboxamide], the IC50 is 141 nM in test [1], 209 nM in test [2] and 182 nM in test [3].
Taken in the same sequence, the figures for `Nc1ncc(-n2ncc(C(=O)Nc3ccnc(C(F)(F)F)c3)c2C(F)(F)F)c2ccccc12` [Cpd 339, 1-(1-aminoisoquinolin-4-yl)-5-(trifluoromethyl)-N-(2-(trifluoromethyl)pyridin-4-yl)-1H-pyrazole-4-carboxamide] were 117 nM, 107 nM and 87 nM.
The corresponding values for `N#Cc1cc(NC(=O)c2cnn(-c3cnc(N)c4ccccc34)c2C(F)(F)F)ccn1` [Cpd 340, 1-(1-aminoisoquinolin-4-yl)-N-(2-cyanopyridin-4-yl)-5-(trifluoromethyl)-1H-pyrazole-4-carboxamide] are 209 nM, 295 nM and 229 nM.
`Cc1cnn(-c2nc(C)c(NC(=O)c3cnn(-c4cnc(N)c5ccccc45)c3C(F)(F)F)cc2Cl)n1` [Cpd 341, 1-(1-aminoisoquinolin-4-yl)-N-(5-chloro-2-methyl-6-(4-methyl-2H-1,2,3-triazol-2-yl)pyridin-3-yl)-5-(trifluoromethyl)-1H-pyrazole-4-carboxamide]: the concentration for half-maximal inhibition (IC50) in test [1] is 25 nM; in test [2], 479 nM; in test [3] it was 389 nM.
As to `Nc1ncc(-n2ncc(C(=O)Nc3cncc(C(F)(F)F)c3)c2C(F)(F)F)c2ccccc12` [Cpd 342, 1-(1-aminoisoquinolin-4-yl)-5-(trifluoromethyl)-N-(5-(trifluoromethyl)pyridin-3-yl)-1H-pyrazole-4-carboxamide], the IC50 in test [1] is 115 nM; in test [2] it was 162 nM; in test [3] it was 132 nM.
`Cc1nc(-n2nccn2)c(Br)cc1NC(=O)c1cnn(-c2cnc(N)c3ccccc23)c1C(F)(F)F` [Cpd 343, 1-(1-aminoisoquinolin-4-yl)-N-(5-bromo-2-methyl-6-(2H-1,2,3-triazol-2-yl)pyridin-3-yl)-5-(trifluoromethyl)-1H-pyrazole-4-carboxamide]: the IC50 turned out to be 20 nM in test [1], 69 nM in test [2] and 37 nM in test [3].
`O=C(Nc1cnc(-n2nccn2)c(Cl)c1)c1cnn(-c2cccc3[nH]c(=O)ccc23)c1C(F)(F)F` [Cpd 344, N-(5-chloro-6-(2H-1,2,3-triazol-2-yl)pyridin-3-yl)-1-(2-oxo-1,2-dihydroquinolin-5-yl)-5-(trifluoromethyl)-1H-pyrazole-4-carboxamide]: the IC50 came out at 1230 nM in test [1], 52 nM in test [2] and 52 nM in test [3].
`COc1ncc(NC(=O)c2cnn(-c3cccc4c(=O)[nH]ccc34)c2C(F)(F)F)cc1Cl` [Cpd 345, N-(5-chloro-6-methoxypyridin-3-yl)-1-(1-oxo-1,2-dihydroisoquinolin-5-yl)-5-(trifluoromethyl)-1H-pyrazole-4-carboxamide]: the figures for the concentration for half-maximal inhibition (IC50) in test [1], in test [2] and in test [3] were 93 nM, 79 nM and 58 nM, respectively.
The corresponding values for `N#Cc1cncc(NC(=O)c2cnn(-c3cccc4c(=O)[nH]ccc34)c2C(F)(F)F)c1` [Cpd 346, N-(5-cyanopyridin-3-yl)-1-(1-oxo-1,2-dihydroisoquinolin-5-yl)-5-(trifluoromethyl)-1H-pyrazole-4-carboxamide] are 275 nM, 457 nM and 224 nM.
The corresponding values for `Cc1cc(NC(=O)c2cnn(-c3cccc4c(=O)[nH]ccc34)c2C(F)(F)F)ccn1` [Cpd 347, N-(2-methylpyridin-4-yl)-1-(1-oxo-1,2-dihydroisoquinolin-5-yl)-5-(trifluoromethyl)-1H-pyrazole-4-carboxamide] are 933 nM, 43 nM and 31 nM.
Regarding `Cc1ncc(NC(=O)c2cnn(-c3cccc4c(=O)[nH]ccc34)c2C(F)(F)F)cc1C(F)(F)F` [Cpd 348, N-(6-methyl-5-(trifluoromethyl)pyridin-3-yl)-1-(1-oxo-1,2-dihydroisoquinolin-5-yl)-5-(trifluoromethyl)-1H-pyrazole-4-carboxamide], the 50% inhibitory concentration (IC50) turned out to be 195 nM in test [1], 100 nM in test [2] and 68 nM in test [3].
As for `O=C(Nc1ccncc1)c1cnn(-c2cccc3c(=O)[nH]ccc23)c1C(F)(F)F` [Cpd 349, 1-(1-oxo-1,2-dihydroisoquinolin-5-yl)-N-(pyridin-4-yl)-5-(trifluoromethyl)-1H-pyrazole-4-carboxamide], the IC50 was 13500 nM in test [1], 79 nM in test [2] and 60 nM in test [3].
In the case of `O=C(Nc1ccnc(C2CC2)c1)c1cnn(-c2cccc3c(=O)[nH]ccc23)c1C(F)(F)F` [Cpd 350, N-(2-cyclopropylpyridin-4-yl)-1-(1-oxo-1,2-dihydroisoquinolin-5-yl)-5-(trifluoromethyl)-1H-pyrazole-4-carboxamide], the half-inhibitory concentration (IC50) in test [1] is 1260 nM; in test [2] it was 204 nM; in test [3], 182 nM.
In the case of `CN(C)C(=O)c1ncc(NC(=O)c2cnn(-c3cccc4c(=O)[nH]ccc34)c2C(F)(F)F)cc1Cl` [Cpd 351, 3-chloro-N,N-dimethyl-5-(1-(1-oxo-1,2-dihydroisoquinolin-5-yl)-5-(trifluoromethyl)-1H-pyrazole-4-carboxamido)picolinamide], the concentration for half-maximal inhibition (IC50) in test [1] turned out to be 68 nM; in test [2] it was 78 nM; in test [3], 46 nM.
On to `CNC(=O)c1ncc(NC(=O)c2cnn(-c3cccc4c(=O)[nH]ccc34)c2C(F)(F)F)cc1Cl` [Cpd 352, 3-chloro-N-methyl-5-(1-(1-oxo-1,2-dihydroisoquinolin-5-yl)-5-(trifluoromethyl)-1H-pyrazole-4-carboxamido)picolinamide], for which the IC50 in test [1] was 44 nM; in test [2] it was 129 nM; in test [3] it was 87 nM.
Taken in the same sequence, the figures for `O=C(Nc1cncc(Cl)c1)c1cnn(-c2cccc3c(=O)[nH]ccc23)c1C(F)(F)F` [Cpd 353, N-(5-chloropyridin-3-yl)-1-(1-oxo-1,2-dihydroisoquinolin-5-yl)-5-(trifluoromethyl)-1H-pyrazole-4-carboxamide] were 115 nM, 692 nM and 537 nM.
On to `N#Cc1ncc(NC(=O)c2cnn(-c3cccc4c(=O)[nH]ccc34)c2C(F)(F)F)cc1C(F)(F)F` [Cpd 354, N-(6-cyano-5-(trifluoromethyl)pyridin-3-yl)-1-(1-oxo-1,2-dihydroisoquinolin-5-yl)-5-(trifluoromethyl)-1H-pyrazole-4-carboxamide], for which the IC50 in test [1] came to 52 nM; in test [2], 457 nM; in test [3], 437 nM.
For `COC(=O)c1ncc(NC(=O)c2cnn(-c3cccc4c(=O)[nH]ccc34)c2C(F)(F)F)cc1Cl` [Cpd 355, methyl 3-chloro-5-(1-(1-oxo-1,2-dihydroisoquinolin-5-yl)-5-(trifluoromethyl)-1H-pyrazole-4-carboxamido)picolinate], the IC50 amounted to 10 nM in test [1], 912 nM in test [2] and 407 nM in test [3].
`N#Cc1cc(NC(=O)c2cnn(-c3cccc4c(=O)[nH]ccc34)c2C(F)(F)F)ccn1` [Cpd 356, N-(2-cyanopyridin-4-yl)-1-(1-oxo-1,2-dihydroisoquinolin-5-yl)-5-(trifluoromethyl)-1H-pyrazole-4-carboxamide]: the half-inhibitory concentration (IC50) amounted to 123 nM in test [1], 295 nM in test [2] and 209 nM in test [3].
As for `COCCOc1ncc(C(F)(F)F)cc1NC(=O)c1cnn(-c2cccc3c(=O)[nH]ccc23)c1C(F)(F)F` [Cpd 357, N-(2-(2-methoxyethoxy)-5-(trifluoromethyl)pyridin-3-yl)-1-(1-oxo-1,2-dihydroisoquinolin-5-yl)-5-(trifluoromethyl)-1H-pyrazole-4-carboxamide], the IC50 in test [1] was determined as 977 nM; in test [2] it was 15 nM; in test [3], 15 nM.
Turning to `Cc1nc(-n2nccn2)c(Cl)cc1NC(=O)c1cnn(-c2cc(=O)[nH]c3ccccc23)c1C(F)(F)F` [Cpd 358, N-(5-chloro-2-methyl-6-(2H-1,2,3-triazol-2-yl)pyridin-3-yl)-1-(2-oxo-1,2-dihydroquinolin-4-yl)-5-(trifluoromethyl)-1H-pyrazole-4-carboxamide], the IC50 in test [1] stood at 19 nM; in test [2] it was 123 nM; in test [3], 126 nM.
`Cc1cnn(-c2nc(C)c(NC(=O)c3cnn(-c4cccc5c(=O)[nH]ccc45)c3C(F)(F)F)cc2Cl)n1` [Cpd 359, N-(5-chloro-2-methyl-6-(4-methyl-2H-1,2,3-triazol-2-yl)pyridin-3-yl)-1-(1-oxo-1,2-dihydroisoquinolin-5-yl)-5-(trifluoromethyl)-1H-pyrazole-4-carboxamide]: the IC50 in test [1] turned out to be 28 nM; in test [2], 98 nM; in test [3], 91 nM.

One may read the IC50 as the midpoint of a concentration-inhibition curve.
